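96-well plates; 48 h exposure; 5 concentrations. Endpoints by linear interpolation between flanking doses. Not reached: highest tested concentration assigned. TGI is the concentration that stops growth completely.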
Columns and labels:
Assay in all cases: inhibition of tumour cell growth, NCI panel, 48 h
[1] = system: 786-0 renal
[2] = system: A498 renal
[3] = system: A549 NSCLC
[4] = system: ACHN renal
[5] = system: CAKI-1 renal
[6] = system: CCRF-CEM leukemia
[7] = system: COLO 205 colon
[8] = system: DLD-1 colon
[9] = system: DMS 114 small cell lung
[10] = system: DMS 273 small cell lung
[11] = system: EKVX NSCLC
[12] = system: HCC-2998 colon
[13] = system: HCT-116 colon
[14] = system: HCT-15 colon
[15] = system: HL-60(TB) leukemia
[16] = system: HOP-18 NSCLC
[17] = system: HOP-62 NSCLC
[18] = system: HOP-92 NSCLC
[19] = system: HT29 colon
[20] = system: IGROV1 ovarian
[21] = system: K-562 leukemia
[22] = system: KM12 colon
[23] = system: KM20L2 colon
[24] = system: LOX IMVI melanoma
[25] = system: LXFL 529 NSCLC
[26] = system: M14 melanoma
[27] = system: M19-MEL melanoma
[28] = system: MALME-3M melanoma
[29] = system: MOLT-4 leukemia
[30] = system: NCI-H226 lung
[31] = system: NCI-H23 lung
[32] = system: NCI-H460 lung
[33] = system: NCI-H522 lung
[34] = system: OVCAR-3 ovarian
[35] = system: OVCAR-4 ovarian
[36] = system: OVCAR-5 ovarian
[37] = system: OVCAR-8 ovarian
[38] = system: RPMI-8226 leukemia
[39] = system: RXF 393 renal
[40] = system: RXF-631 renal
[41] = system: SF-268 CNS
[42] = system: SF-295 CNS
[43] = system: SK-MEL-28 melanoma
[44] = system: SK-OV-3 ovarian
[45] = system: SN12C renal
[46] = system: SNB-19 CNS
[47] = system: SNB-75 CNS
[48] = system: SNB-78 CNS
[49] = system: SR leukemia
[50] = system: SW-620 colon
[51] = system: TK-10 renal
[52] = system: U251 CNS
[53] = system: UACC-257 melanoma
[54] = system: UACC-62 melanoma
[55] = system: UO-31 renal
[56] = system: SF-539 CNS
[57] = system: SK-MEL-2 melanoma
[58] = system: SK-MEL-5 melanoma
[59] = system: XF 498 CNS

Structure (SMILES): COc1ccc(NC(=O)C(=O)Cc2ccc([N+](=O)[O-])c([N+](=O)[O-])c2CC(=O)C(=O)Nc2ccc(OC)cc2OC)c(OC)c1
- TGI [1]: > 100 µM
- TGI [2]: > 100 µM
- TGI [3]: > 100 µM
- TGI [4]: > 100 µM
- TGI [5]: > 100 µM
- TGI [6]: > 100 µM
- TGI [7]: > 100 µM
- TGI [8]: > 100 µM
- TGI [9]: > 100 µM
- TGI [10]: > 100 µM
- TGI [11]: > 100 µM
- TGI [12]: > 100 µM
- TGI [13]: > 100 µM
- TGI [14]: > 100 µM
- TGI [15]: > 100 µM
- TGI [16]: > 100 µM
- TGI [17]: > 100 µM
- TGI [18]: > 100 µM
- TGI [19]: > 100 µM
- TGI [20]: > 100 µM
- TGI [21]: > 100 µM
- TGI [22]: > 100 µM
- TGI [23]: > 100 µM
- TGI [24]: > 100 µM
- TGI [25]: > 100 µM
- TGI [26]: > 100 µM
- TGI [27]: > 100 µM
- TGI [28]: > 100 µM
- TGI [29]: > 100 µM
- TGI [30]: > 100 µM
- TGI [31]: > 100 µM
- TGI [32]: > 100 µM
- TGI [33]: > 100 µM
- TGI [34]: > 100 µM
- TGI [35]: > 100 µM
- TGI [36]: > 100 µM
- TGI [37]: > 100 µM
- TGI [38]: > 100 µM
- TGI [39]: > 100 µM
- TGI [40]: > 100 µM
- TGI [41]: > 100 µM
- TGI [42]: > 100 µM
- TGI [43]: > 100 µM
- TGI [44]: > 100 µM
- TGI [45]: > 100 µM
- TGI [46]: > 100 µM
- TGI [47]: > 100 µM
- TGI [48]: > 100 µM
- TGI [49]: > 100 µM
- TGI [50]: > 100 µM
- TGI [51]: > 100 µM
- TGI [52]: > 100 µM
- TGI [53]: > 100 µM
- TGI [54]: > 100 µM
- TGI [55]: > 100 µM

Structure (SMILES): Cc1ccc(NC(=O)C2C3CCC(O3)C2C(=O)O)cc1 (centres undefined)
- TGI [1]: > 56.1 µM
- TGI [2]: > 75.7 µM
- TGI [3]: > 100 µM
- TGI [4]: > 100 µM
- TGI [5]: > 100 µM
- TGI [6]: > 75.5 µM
- TGI [7]: > 59.8 µM
- TGI [8]: 96.9 µM
- TGI [9]: > 59.8 µM
- TGI [10]: > 100 µM
- TGI [11]: > 100 µM
- TGI [12]: > 100 µM
- TGI [13]: > 54.7 µM
- TGI [14]: > 65.3 µM
- TGI [15]: > 60.6 µM
- TGI [16]: > 100 µM
- TGI [17]: > 100 µM
- TGI [18]: > 92.9 µM
- TGI [19]: > 64.2 µM
- TGI [20]: > 100 µM
- TGI [21]: > 77.6 µM
- TGI [22]: > 100 µM
- TGI [23]: > 57.8 µM
- TGI [24]: > 54.8 µM
- TGI [25]: > 74.6 µM
- TGI [26]: > 76.4 µM
- TGI [27]: > 100 µM
- TGI [28]: > 100 µM
- TGI [29]: > 100 µM
- TGI [30]: > 100 µM
- TGI [31]: > 100 µM
- TGI [32]: > 100 µM
- TGI [33]: > 100 µM
- TGI [34]: > 89.7 µM
- TGI [35]: > 100 µM
- TGI [36]: > 100 µM
- TGI [37]: > 100 µM
- TGI [38]: > 68.8 µM
- TGI [39]: 48.6 µM
- TGI [40]: > 100 µM
- TGI [41]: > 73.2 µM
- TGI [42]: > 100 µM
- TGI [56]: > 100 µM
- TGI [57]: > 100 µM
- TGI [43]: > 100 µM
- TGI [58]: > 100 µM
- TGI [44]: > 100 µM
- TGI [45]: > 81.4 µM
- TGI [46]: > 100 µM
- TGI [47]: > 100 µM
- TGI [48]: > 100 µM
- TGI [49]: 43.6 µM
- TGI [50]: > 45.1 µM
- TGI [51]: > 100 µM
- TGI [52]: > 100 µM
- TGI [53]: > 100 µM
- TGI [54]: > 100 µM
- TGI [55]: > 100 µM
- TGI [59]: > 77.8 µM

From PubChem BioAssay (NCI)
